Converted amounts (≈) assume the structure as drawn. “Also recorded” adds a separate entry of the source. Where two headings read alike, the source gives them in different places.
Tests used:
[1] = target: MTB ClpP1P2 (Mycobacterium tuberculosis, UniProt P9WPC3+P9WPC5); assay: Z-GGL-amc peptidase activity of Z-LL pre-activated ClpP1P2; assay type: biochemical, M. tuberculosis; conditions: 5 mM Z-LL, without ADEP
[2] = target: T1, BS ClpP (Bacillus subtilis, UniProt P80244); assay: Z-LL stability in the presence of BS ClpP, HPLC; parameters: species or system B. subtilis; conditions: 1 mM Z-LL, 3 μM BS ClpP, 3 h, 37 °C, activity buffer, Fig. S3
[3] = target: T1, BS ClpP; assay: suc-LY-amc hydrolysis competition assay with BS ClpP; assay type: biochemical, B. subtilis; conditions: 3 μM BS ClpP, 30 μM suc-LY-amc, 0–60 μM ADEP2, 0, 500 or 2500 μM Z-LL, pH 8
[4] = system: B. subtilis 168ΔclpP; assay: microbe, parasite or virus in culture; assay type: cell-based; conditions: Bacillus subtilis, LB medium
[5] = system: M. bovis BCG Pasteur; assay: microbe, parasite or virus in culture; assay type: cell-based, Mycobacterium bovis BCG
[6] = system: B. subtilis 168-pX2-clpP; assay: MIC determination, conditional strain B. subtilis 168-pX2-clpP; assay type: cell-based; conditions: Bacillus subtilis, 168PX2CLPP, LB medium
[7] = system: M. tuberculosis H37Rv; assay: MIC determination by broth microdilution, M. tuberculosis; assay type: cell-based; conditions: Mycobacterium tuberculosis
[8] = system: B. subtilis 168; assay: MIC determination by broth microdilution, B. subtilis 168 wt; assay type: cell-based; conditions: Bacillus subtilis, 168, B. subtilis 168 wt, LB medium
[9] = system: M. bovis BCG clpP1-tetoff; assay: microbe, parasite or virus in culture; assay type: cell-based, Mycobacterium bovis BCG
[10] = system: S. aureus; conditions: ref Conlon et al., 2013; cited from earlier work
[11] = system: ClpC1; conditions: ref Gavrish et al., 2014 (lassomycin); Gao et al., 2014 (ecumicin); cited from earlier work
[12] = system: ClpC1; conditions: binding to the ATPase ClpC1; ref Schmitt et al., 2011; cited from earlier work
[13] = system: M. bovis wildtype (wt); assay type: cell-based, Mycobacterium bovis BCG
[14] = system: M. bovis BCG clpP1-tetoff; assay type: cell-based, Mycobacterium bovis BCG
[15] = system: ClpP2; assay type: cell-based, M. bovis BCG
[16] = system: M. smegmatis mc^2155; assay: MIC determination by broth microdilution, M. smegmatis; assay type: cell-based, Mycobacterium smegmatis; conditions: Mycolicibacterium smegmatis, MC^2155, 48 h
[17] = M. bovis BCG wt, 25 ng ml^−1 ATc
[18] = M. bovis BCG wt, no ATc (Table 2)
[19] = Mycobacterium tuberculosis variant bovis BCG, BCG

T1 sequence (P80244 whole entry): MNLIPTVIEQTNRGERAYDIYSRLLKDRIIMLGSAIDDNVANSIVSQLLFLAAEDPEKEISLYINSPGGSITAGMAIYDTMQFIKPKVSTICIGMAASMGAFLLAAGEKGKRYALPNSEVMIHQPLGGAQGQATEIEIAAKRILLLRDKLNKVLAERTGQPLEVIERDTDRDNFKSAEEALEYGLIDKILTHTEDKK

## benzyloxycarbonyl-leucyl-leucine [Z-LL]
[1]
  peptidase activity of ClpP1P2 activated by Z-LL alone: able to degrade the fluorogenic peptide substrate Z-GGL-amc
[2]
  amount of Z-LL after incubation with BS ClpP: not reduced after 3 hours incubation
[3]
  mode of inhibition of Z-LL versus ADEP2: non-competitive with ADEP

## CN[C@@H]1[C@@H](O[C@H]2O[C@H](CO)[C@@H](N)[C@H](O)[C@H]2O)OC2C[C@@H](N)[C@@H](O[C@H]3[C@H](O)[C@@H](O)[C@H](N)C[C@@H]3N)OC2[C@@H]1O (some centres unmarked) [apramycin]
[4]; 10% xylose
  MIC: 1 µg/mL (≈ 1.85 µM)
[4]; no xylose
  MIC: 2 µg/mL (≈ 3.71 µM)
[5]; [17]
  MIC: 1 µg/mL (≈ 1.85 µM)
[5]; [18]
  MIC: 1 µg/mL (≈ 1.85 µM)
[5]; [19]
  MIC: 1 µg/mL (≈ 1.85 µM)
[6]; 1% xylose
  MIC: 1 µg/mL (≈ 1.85 µM)
[6]; 2% xylose
  MIC: 2 µg/mL (≈ 3.71 µM)
[6]; 3% xylose
  MIC: 2 µg/mL (≈ 3.71 µM)
[6]; 4% xylose
  MIC: 4 µg/mL (≈ 7.41 µM)
[6]; 5% xylose
  MIC: 2 µg/mL (≈ 3.71 µM)
[6]; 8% xylose
  MIC: 4 µg/mL (≈ 7.41 µM)
[6]; 10% xylose
  MIC: 4 µg/mL (≈ 7.41 µM)
[6]; no xylose
  MIC: 2 µg/mL (≈ 3.71 µM)
[7]
  MIC: 1 µg/mL (≈ 1.85 µM)
[8]; 10% xylose
  MIC: 2 µg/mL (≈ 3.71 µM)
[8]; no xylose
  MIC: 4 µg/mL (≈ 7.41 µM)
[9]
  effect of ATc (clpP1P2 down-regulation) on sensitivity to the antibiotic: did not occur

## CO[C@H]1/C=C/O[C@@]2(C)Oc3c(C)c(O)c4c(O)c(c(/C=N/N5CCN(C)CC5)c(O)c4c3C2=O)NC(=O)/C(C)=C\C=C\[C@H](C)[C@H](O)[C@@H](C)[C@@H](O)[C@@H](C)[C@H](OC(C)=O)[C@@H]1C [Rifampicin]
[10]
  synergy with ADEP against S. aureus: act synergistically with ADEP against S. aureus

## lassomycin
[11]
  ATP-hydrolysis by ClpC1, uncoupling from protein degradation by ClpP1P2: stimulate ATP-hydrolysis by ClpC1, while uncoupling it from protein degradation by ClpP1P2

## Cyclomarin
[12]
  hydrolysis of a model protein in M. smegmatis: increased hydrolysis of a model protein

## Cc1c2c(c(O)c3c(O)cccc13)C(=O)[C@]1(O)C(=O)C(C(N)=O)=C(O)[C@@H](N(C)C)[C@@H]1C2 [ATc, anhydrotetracycline]
[13]; 2 ng ml^−1 ATc
  growth of M. bovis wildtype: not affected
[13]; 25 ng ml^−1 ATc, MIC growth controls
  growth of M. bovis wildtype: did not impede growth of the wildtype strain
[14]
  growth of clpP1-tetoff strain: slowed down the growth rate; also recorded: the cells were dying
[15]
  ClpP2 / ClpP1P2 protein level: considerably reduced level

## ecumicin
[11]
  ATP-hydrolysis by ClpC1, uncoupling from protein degradation by ClpP1P2: stimulate ATP-hydrolysis by ClpC1, while uncoupling it from protein degradation by ClpP1P2

## NNC(=O)c1ccncc1 [isoniazid]
[5]; M. bovis BCG Pasteur, 7H9 medium
  MIC: 0.06 µg/mL (≈ 0.438 µM)
[5]; [17]
  MIC: 0.06 µg/mL (≈ 0.438 µM)
[5]; [18]
  MIC: 0.06 µg/mL (≈ 0.438 µM)
[5]; [19]
  MIC: 0.06 µg/mL (≈ 0.438 µM)
[16]
  MIC: 4 µg/mL (≈ 29.2 µM)
[9]
  effect of ATc (clpP1P2 down-regulation) on sensitivity to the antibiotic: did not occur
[9]; [19]
  MIC: 0.03 µg/mL (≈ 0.219 µM)

— publication PMC5469208 (Molecular microbiology, 2016)
